The subject of test [1] is AcdA. The settings on record: 50 mM Tris-HCl pH 7.5, 1 mM methyl viologen, 5 mM Ti(III) citrate, anaerobic, 24 °C.
The target in test [2] is AcdA. To be noted: 50 mM Tris-HCl pH 7.5, 1 mM methyl viologen, 5 mM Ti(III) citrate, anaerobic, 24 °C; substrate inhibition.
In test [3] the target is T1, CfrA (Dehalobacter sp. CF, UniProt K4LFB7).
T1 construct: expressed from p15TVL-cfrA with pBAD42-BtuCEDFB in E. coli BL21(DE3) suf strain; partially purified; 48 kDa; cobamide and two iron-sulfur clusters
Kind of test: GC-FID, total consumption in gas-tight syringe, […] min; substrate-inhibition Michaelis-Menten fit. The settings on record: 50 mM Tris-HCl pH 7.5, 1 mM methyl viologen, 5 mM Ti(III) citrate, anaerobic, 24 °C. In kind it is biochemical.

In test [4] the test system is T2, AcdA.
T2 construct: expressed from p15TVL-acdA with pBAD42-BtuCEDFB in E. coli BL21(DE3) suf strain; partially purified; 48 kDa; cobamide and two iron-sulfur clusters
The description is as above. In kind it is biochemical, Dehalobacter sp. The settings on record: 50 mM Tris-HCl pH 7.5, 1 mM methyl viologen, 5 mM Ti(III) citrate, anaerobic, 24 °C.

The target in test [5] is T3, TmrA (Dehalobacter sp. UNSWDHB, UniProt T0I6H2).
T3 construct: expressed from p15TVL-tmrA with pBAD42-BtuCEDFB in E. coli BL21(DE3) suf strain; partially purified; 48 kDa; cobamide and two iron-sulfur clusters
T3 sequence (T0I6H2 51-456): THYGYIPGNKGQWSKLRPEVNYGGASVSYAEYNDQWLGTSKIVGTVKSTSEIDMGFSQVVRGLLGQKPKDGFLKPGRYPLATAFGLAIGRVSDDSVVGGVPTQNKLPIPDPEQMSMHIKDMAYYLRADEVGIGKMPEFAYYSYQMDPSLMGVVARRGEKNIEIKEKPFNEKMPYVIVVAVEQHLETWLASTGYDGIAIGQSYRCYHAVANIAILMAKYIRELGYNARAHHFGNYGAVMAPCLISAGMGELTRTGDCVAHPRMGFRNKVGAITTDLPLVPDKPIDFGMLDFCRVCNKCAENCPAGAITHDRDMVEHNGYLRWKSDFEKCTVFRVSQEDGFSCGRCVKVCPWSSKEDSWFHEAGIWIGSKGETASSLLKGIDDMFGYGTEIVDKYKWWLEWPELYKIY
Described as above. Type of test: biochemical. The settings on record: 50 mM Tris-HCl pH 7.5, 1 mM methyl viologen, 5 mM Ti(III) citrate, anaerobic, 24 °C.

Test [6] has as its target T2, AcdA. The description is as above. Type of test: biochemical, Dehalobacter sp. To be noted: 50 mM Tris-HCl pH 7.5, 1 mM methyl viologen, 5 mM Ti(III) citrate, anaerobic, 24 °C. The source holds these as a separate data set.
In test [7] the target is T4, CfrA (Dehalobacter sp. CF, UniProt K4LFB7).
T4 construct: expressed from p15TVL-cfrA with pBAD42-BtuCEDFB in E. coli BL21(DE3) suf strain; partially purified; 48 kDa; cobamide and two iron-sulfur clusters
T4 sequence (K4LFB7 43-456 limits assumed): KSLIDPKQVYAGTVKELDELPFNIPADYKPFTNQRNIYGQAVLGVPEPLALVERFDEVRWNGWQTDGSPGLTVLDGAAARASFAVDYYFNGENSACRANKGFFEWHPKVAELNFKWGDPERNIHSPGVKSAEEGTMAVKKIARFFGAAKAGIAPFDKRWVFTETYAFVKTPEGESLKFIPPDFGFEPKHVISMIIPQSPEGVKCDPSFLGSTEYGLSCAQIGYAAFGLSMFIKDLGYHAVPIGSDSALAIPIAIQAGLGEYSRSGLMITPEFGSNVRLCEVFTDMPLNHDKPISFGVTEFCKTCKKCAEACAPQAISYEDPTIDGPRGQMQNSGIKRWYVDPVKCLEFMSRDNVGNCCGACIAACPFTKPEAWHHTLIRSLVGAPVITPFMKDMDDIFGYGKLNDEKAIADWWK
Briefly: inhibition of chloroform dechlorination, GC-FID, […] min; single TCE concentration fit. Type of test: biochemical. To be noted: uncompetitive; chloroform as substrate, about […] TCE, […] Tris-HCl pH […] methyl viologen, Ti(III) citrate, […] °C.

For test [8], the target named is T3, TmrA. The description is as above. In kind it is biochemical. The settings on record: uncompetitive; chloroform as substrate, about 45 µM TCE, 50 mM Tris-HCl pH 7.5, 1 mM methyl viologen, Ti(III) citrate, 20 °C.
In test [9] the test system is T2, AcdA. Kind of test: GC-FID product formation in gas-tight syringe, […] min; Michaelis-Menten fit. To be noted: 50 mM Tris-HCl pH 7.5, 1 mM methyl viologen, 5 mM Ti(III) citrate, anaerobic, 24 °C. Type of test: biochemical, Dehalobacter sp.

By Km is commonly meant the substrate concentration at which the rate is half of its maximum.

Where two headings read alike, the source gives them in different places.

Regarding `ClC(Cl)Cl` [chloroform], in test [1], the Km is 29 ± 8 µM. The “KI,CF” value in test [2] was 0.61 ± 0.24 mM.

Take `ClCC(Cl)Cl` [1,1,2-trichloroethane]: the “KI,TCA” value stood at 7.1 ± 4.4 mM in test [3], 6.2 ± 3.7 mM in test [5] and 2 ± 0.55 mM in test [6]. For the same compound, in [4], the Km stood at 120 ± 20 µM.

Regarding `ClC=C(Cl)Cl` [trichloroethene], the “KI,TCE” value in test [7] and in test [8] was “All three enzymes showed better model fits with uncompetitive inhibition” throughout.

Turning to `CC(Cl)(Cl)Cl` [1,1,1-trichloroethane], the Km in [9] was 280 ± 100 µM.

For the origin of these results see paper doi:10.1101/2024.07.10.602960v2, “Contrasting Kinetics of Highly Similar Chloroalkane Reductive Dehalogenases” (biorxiv, 2024).
